In US12679824B2 (Hoffmann-La Roche Inc., priority 2020, dated 2026):

test system: Acinetobacter baumannii ATCC17961; assay: 90% Growth Inhibitory Concentration (IC90) determination, antimicrobial susceptibility testing; format: cell-based; conditions: Acinetobacter baumannii ATCC17961; Iso-Sensitest broth; growth by optical density at 600 nm over 16h; concentration inhibiting 90% of the growth; read-out: ATCC 17961 IC90
In short: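 Broth microdilution in Iso-Sensitest medium, compounds twofold diluted (e.g. 50–0.097 μM final), inoculum ~5×10^(5) CFU/ml, 35±2° C. OD600 was read every 20 min over 16 h. IC90 was derived from growth inhibition during logarithmic growth.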

IC90 | SMILES
630 nM | Cn1c(-c2cn(-c3ccc(N)cn3)nc2C(F)(F)F)cnc1C(=O)Nc1ccc(C(=O)N[C@H]2C[C@@H](NC(=O)[C@@H]3C[C@@H](O)CN3)C2)c(Cl)c1 (stereo in doubt) [Example Z42, 5-[1-(5-amino-2-pyridyl)-3-(trifluoromethyl)pyrazol-4-yl]-N-[3-chloro-4-[cis-[3-[[(2S,4R)-4-hydroxyprolyl]amino]cyclobutyl]carbamoyl]phenyl]-1-methyl-imidazole-2-carboxamide]

same assay, conditions: Acinetobacter baumannii, ATCC17961, 16 h, Acinetobacter baumannii ATCC17961; Iso-Sensitest broth; growth by optical density at 600 nm over 16h; concentration inhibiting 90% of the growth; read-out: ATCC 17961 IC90

IC90 | SMILES
800 nM | Cn1c(-c2cn(-c3ccnc(Cl)c3)nc2C(F)(F)F)cnc1C(=O)Nc1ccc(C(=O)N2CCN(C(=O)C3CCNCC3)CC2)c(Cl)c1 [Example Z50, N-[3-chloro-4-(4-isonipecotoylpiperazine-1-carbonyl)phenyl]-5-[1-(2-chloro-4-pyridyl)-3-(trifluoromethyl)pyrazol-4-yl]-1-methyl-imidazole-2-carboxamide]
340 nM | Cc1cc(-n2cc(-c3cnc(C(=O)Nc4ccc(C(=O)N5CCN(C(=O)C6CCNCC6)CC5)c(Cl)c4)n3C)c(C(F)(F)F)n2)ncc1N [Example Z82, 5-[1-(5-amino-4-methyl-2-pyridyl)-3-(trifluoromethyl)pyrazol-4-yl]-N-[3-chloro-4-[4-(piperidine-4-carbonyl)piperazine-1-carbonyl]phenyl]-1-methyl-imidazole-2-carboxamide]
930 nM | Cn1c(-c2cn(-c3ccc(N)cn3)nc2C(F)(F)F)cnc1C(=O)Nc1ccc(C(=O)NC2(CN)CC2)c(Cl)c1 [Example Z6, N-[4-[[1-(aminomethyl)cyclopropyl]carbamoyl]-3-chloro-phenyl]-5-[1-(5-amino-2-pyridyl)-3-(trifluoromethyl)pyrazol-4-yl]-1-methyl-imidazole-2-carboxamide]
1310 nM | COCC1CN(C(=O)c2ccc(NC(=O)c3ncc(-c4cn(-c5ccc(N)cn5)nc4C(F)(F)F)n3C)cc2Cl)CCN1 (stereo not shown) [Example Z69, 5-[1-(5-amino-2-pyridyl)-3-(trifluoromethyl)pyrazol-4-yl]-N-[3-chloro-4-[3-(methoxymethyl)piperazine-1-carbonyl]phenyl]-1-methyl-imidazole-2-carboxamide]
540 nM | Cn1c(-c2cn(-c3ccc(N)cn3)nc2C(F)(F)F)cnc1C(=O)Nc1ccc(C(=O)N2CC3(CC(NC(=O)[C@@H]4C[C@@H](O)CN4)C3)C2)c(Cl)c1 [Example Z25, 5-[1-(5-amino-2-pyridyl)-3-(trifluoromethyl)pyrazol-4-yl]-N-[3-chloro-4-[6-[[(2S,4R)-4-hydroxyprolyl]amino]-2-azaspiro[3.3]heptane-2-carbonyl]phenyl]-1-methyl-imidazole-2-carboxamide]
270 nM | CN(C(=O)c1ccc(NC(=O)c2ncc(-c3cn(-c4ccc(N)cn4)nc3C(F)(F)F)n2C)cc1Cl)C1CCN(C(=O)[C@@H]2C[C@@H](O)CN2)CC1 [Example Z35, 5-[1-(5-amino-2-pyridyl)-3-(trifluoromethyl)pyrazol-4-yl]-N-[3-chloro-4-[[1-[(2S,4R)-4-hydroxyprolyl]-4-piperidyl]-methyl-carbamoyl]phenyl]-1-methyl-imidazole-2-carboxamide]
170 nM | Cn1c(-c2cn(-c3ncc(NCCN)cn3)nc2C(F)(F)F)cnc1C(=O)Nc1ccc(C(=O)N2CCN(C(=O)C3CCNCC3)CC2)c(Cl)c1 [Example B2, 5-[1-[5-(2-aminoethylamino)pyrimidin-2-yl]-3-(trifluoromethyl)pyrazol-4-yl]-N-[3-chloro-4-[4-(piperidine-4-carbonyl)piperazine-1-carbonyl]phenyl]-1-methyl-imidazole-2-carboxamide]
880 nM | Cn1c(-c2cn(-c3ccc(N)cn3)nc2C(F)(F)F)cnc1C(=O)Nc1ccc(C(=O)N2CCC(C(=O)N3CCNC(CO)C3)CC2)c(Cl)c1 (stereo not shown) [Example H2, 5-[1-(5-amino-2-pyridyl)-3-(trifluoromethyl)pyrazol-4-yl]-N-[3-chloro-4-[4-[3-(hydroxymethyl)piperazine-1-carbonyl]piperidine-1-carbonyl]phenyl]-1-methyl-imidazole-2-carboxamide]
690 nM | Cn1c(-c2cn(-c3ccc(N)cn3)nc2C(F)(F)F)cnc1C(=O)Nc1ccc(C(=O)NCCCNC(=O)[C@@H]2C[C@@H](O)CN2)c(Cl)c1 [Example Z26, 5-[1-(5-amino-2-pyridyl)-3-(trifluoromethyl)pyrazol-4-yl]-N-[3-chloro-4-[3-[[(2S,4R)-4-hydroxyprolyl]amino]propylcarbamoyl]phenyl]-1-methyl-imidazole-2-carboxamide]
830 nM | Cn1c(-c2cn(-c3ncccc3C(F)(F)F)nc2C(F)(F)F)cnc1C(=O)Nc1ccc(C(=O)N2CCN(C(=O)C3CCNCC3)CC2)c(Cl)c1 [Example A10, N-[3-chloro-4-[4-(piperidine-4-carbonyl)piperazine-1-carbonyl]phenyl]-1-methyl-5-[3-(trifluoromethyl)-1-[3-(trifluoromethyl)-2-pyridyl]pyrazol-4-yl]imidazole-2-carboxamide]
7000 nM | COc1nn(-c2ccc(N)cn2)cc1-c1cnc(C(=O)Nc2ccc(C(=O)N3CCN(C(=O)C4CCN(C)CC4)CC3)c(Cl)c2)n1C [Example C10, 5-[1-(5-amino-2-pyridyl)-3-methoxy-pyrazol-4-yl]-N-[3-chloro-4-[4-(1-methylpiperidine-4-carbonyl)piperazine-1-carbonyl]phenyl]-1-methyl-imidazole-2-carboxamide]
990 nM | Cn1c(-c2cn(-c3ccc(N)cn3)nc2C(F)(F)F)cnc1C(=O)Nc1ccc(C(=O)N2CCNC3(CC3)C2)c(Cl)c1 [Example Z51, 5-[1-(5-amino-2-pyridyl)-3-(trifluoromethyl)pyrazol-4-yl]-N-[3-chloro-4-(4,7-diazaspiro[2.5]octane-7-carbonyl)phenyl]-1-methyl-imidazole-2-carboxamide]
750 nM | Cc1cc(N)cnc1-n1cc(-c2cnc(C(=O)Nc3ccc(C(=O)N4CCN(C(=O)C5CCNCC5)CC4)c(Cl)c3)n2C)c(C(F)(F)F)n1 [Example Z81, 5-[1-(5-amino-3-methyl-2-pyridyl)-3-(trifluoromethyl)pyrazol-4-yl]-N-[3-chloro-4-[4-(piperidine-4-carbonyl)piperazine-1-carbonyl]phenyl]-1-methyl-imidazole-2-carboxamide]
100 nM | Cn1c(-c2cn(-c3ccc(NCCN)cn3)nc2C(F)(F)F)cnc1C(=O)Nc1ccc(C(=O)N2CCN(C(=O)C3CCNCC3)CC2)c(Cl)c1 [Example Z89, 5-[1-[5-(2-aminoethylamino)-2-pyridyl]-3-(trifluoromethyl)pyrazol-4-yl]-N-[3-chloro-4-(4-isonipecotoylpiperazine-1-carbonyl)phenyl]-1-methyl-imidazole-2-carboxamide]
670 nM | Cn1c(-c2cn(-c3ccc(N)cn3)nc2C(F)(F)F)cnc1C(=O)Nc1ccc(C(=O)NCCOCCN)c(Cl)c1 [Example Z21, N-[4-[2-(2-aminoethoxy)ethylcarbamoyl]-3-chloro-phenyl]-5-[1-(5-amino-2-pyridyl)-3-(trifluoromethyl)pyrazol-4-yl]-1-methyl-imidazole-2-carboxamide]
1200 nM | COCCNc1ccnc(-n2cc(-c3cnc(C(=O)Nc4ccc(C(=O)N5CCN(C(=O)C6CCNCC6)CC5)c(Cl)c4)n3C)c(C(F)(F)F)n2)n1 [Example A19, N-[3-chloro-4-[4-(piperidine-4-carbonyl)piperazine-1-carbonyl]phenyl]-5-[1-[4-(2-methoxyethylamino)pyrimidin-2-yl]-3-(trifluoromethyl)pyrazol-4-yl]-1-methyl-imidazole-2-carboxamide]
440 nM | CC[C@H]1CNCCN1C(=O)c1ccc(NC(=O)c2ncc(-c3cn(-c4ccc(N)cn4)nc3C(F)(F)F)n2C)cc1Cl [Example Z64, 5-[1-(5-amino-2-pyridyl)-3-(trifluoromethyl)pyrazol-4-yl]-N-[3-chloro-4-[(2S)-2-ethylpiperazine-1-carbonyl]phenyl]-1-methyl-imidazole-2-carboxamide]
390 nM | Cn1c(-c2cn(-c3ccc(N)cn3)nc2C(F)(F)F)cnc1C(=O)Nc1ccc(C(=O)N2CCNCC2)c(Cl)c1 [Example Z32, 5-[1-(5-amino-2-pyridyl)-3-(trifluoromethyl)pyrazol-4-yl]-N-[3-chloro-4-(piperazine-1-carbonyl)phenyl]-1-methyl-imidazole-2-carboxamide]
390 nM | CN(C(=O)[C@@H]1C[C@@H](O)CN1)C1CCN(C(=O)c2ccc(NC(=O)c3ncc(-c4cn(-c5ccc(N)cn5)nc4C(F)(F)F)n3C)cc2Cl)CC1 [Example Z46, 5-[1-(5-amino-2-pyridyl)-3-(trifluoromethyl)pyrazol-4-yl]-N-[3-chloro-4-[4-[[(2S,4R)-4-hydroxyprolyl]-methyl-amino]piperidine-1-carbonyl]phenyl]-1-methyl-imidazole-2-carboxamide]

same assay, conditions: Acinetobacter baumannii, ATCC17961, 16 h, read-out: ATCC 17961 IC90

SMILES | IC90
Cn1c(-c2cn(-c3ccc(N)cn3)nc2C(F)(F)F)cnc1C(=O)Nc1ccc(C(=O)N2CCC(C(=O)N3CCNCC3)CC2)c(Cl)c1 [Example H1, 5-[1-(5-Amino-2-pyridyl)-3-(trifluoromethyl)pyrazol-4-yl]-N-[3-chloro-4-[4-(piperazine-1-carbonyl)piperidine-1-carbonyl]phenyl]-1-methyl-imidazole-2-carboxamide] | 480 nM
Cn1c(-c2cn(-c3ccc(N)cn3)nc2C(F)(F)F)cnc1C(=O)Nc1ccc(C(=O)NC23CC(NC(=O)[C@@H]4C[C@@H](O)CN4)(C2)C3)c(Cl)c1 [Example Z47, 5-[1-(5-amino-2-pyridyl)-3-(trifluoromethyl)pyrazol-4-yl]-N-[3-chloro-4-[[3-[[(2S,4R)-4-hydroxyprolyl]amino]-1-bicyclo[1.1.1]pentanyl]carbamoyl]phenyl]-1-methyl-imidazole-2-carboxamide] | 580 nM
